The values that follow come from patent publication US8686051B2, “Pharmaceutical composition for treatment of diabetic complications” (VLife Sciences Technologies Pvt. Ltd., priority 2007, dated 2014).

pIC50: −log10 of the molar value. Where a name gives a salt, the structure may show the parent alone.

In assay [1] the target is T1, purified human recombinant aldose reductase (Homo sapiens, UniProt P15121).
T1 construct: made in house; host or cells: E. coli
The assay is described as follows: Aldose reductase (AR) inhibition, spectrophotometric NADPH oxidation assay. Particulars: for pIC50: read-out: Aldose reductase inhibitory IC50. The format is biochemical. The text has this:
For enzyme inhibition studies, purified human recombinant aldose reductase (expressed in E. coli) was used for testing the aldose reductase (AR) inhibitory activity of beta adrenergic antagonists by a spectrophotometric method, using glyceraldehydes as substrate, (Mol. Vis. 2004, 10, 148-154). Recombinant human aldose reductase was purified from bacterial cultures. Enzyme from expression cultures was extracted and purified essentially as described previously (J Biol Chem 1992; 267: 24833-40) with the exception that affinity chromatography over AffiGel Blue (Bio-Rad) was used as a final purification step. AR activity was assayed according to the method described by Hayman and Kinoshita (J Biol Chem 1965; 240: 877-82). The assay mixture in 1 ml contained 50 μM potassium phosphate buffer pH 6.2, 0.4 mM lithium sulfate, 5 μM 2-mercaptoethanol, 10 μM DL-glyceraldehyde, 0.1 μM NADPH, and enzyme preparation (rat lens or recombinant enzyme). Appropriate blanks were employed for corrections. The assay mixture was incubated at 37° C. and initiated by the addition of NADPH at 37° C. The change in the absorbance at 340 nm due to NADPH oxidation was followed in a Cary Bio 100 spectrophotometer. For inhibition studies concentrated stocks of the Beta adrenergic antagonists, timolol, esmolol, sotalol, nebivolol, carvedilol, metoprolol and labetalol were prepared in water. Various concentrations of Beta adrenergic antagonists, as test compounds, were added to the assay mixture and incubated for 5-10 minutes before initiating the reaction by NADPH as described above. The percent of inhibition with test compounds was calculated considering the AR activity in the absence of inhibitor was 100%. The concentration of each test sample giving 50% inhibition (IC50) was then estimated.

The subject of assay [2] is formation of sorbitol in red blood cells (RBC). The assay is described as follows: Estimation of sorbitol in red blood cells incubated with 30 mM glucose. The format is cell-based. As to the method: The cells were incubated with 30 mM glucose in vitro. Sorbitol was estimated by the method of reported by Malone, et al. Diabetes; 1980; 29: 861-864.
For assay [3], the system named is collagen (hydroxyproline). The assay is described as follows: Measurement of collagen (tissue hydroxyproline by HPLC). The format is in vivo, rat. Set-up: Collagen production: unit not given here. The text has this:
The synthesis of the 19 known collagens occurs within the cell, as it does for other proteins. The collagen molecule is characterized by the repeating sequence Gly-X-Y, with X often being proline and Y often being hydroxyproline. Hydroxyproline is the end product of collagen breakdown. For this reason, tissue hydroxyproline level is an indirect and objective variable of tissue collagen production. In many experimental studies, hydroxyproline has been used to assess tissue collagen production.
Collagen levels in the tissue were measured by use of high performance liquid chromatography (HPLC) for separating and quantitating the levels of hydroxyproline from the rat tissue. A reverse-phase Nova-Pak C18 column and solvent system (140 mM sodium acetate, 0.05% triethylamine (TEA), 6% acetonitrile) were used, resulting in complete separation of hydroxyproline. Recovery of standards ranged from 89 to 103% and intra-assay variability was <8%. Additionally, [^3H]hydroxyproline measurements were used to examine changes in collagen turnover in the rat labeled with [^3H]proline and “chased” in the presence of 10 mM unlabeled proline.

Assay [4] relates to wound on dorsal skin of diabetic Wistar rats. Put plainly: Diabetic wound healing in streptozocin-diabetic rats, topical treatment. The format is in vivo. Particulars: for Wound diameter: diabetic rats, topical. As to the method:
Wistar rats were kept in standard autoclaved rodent cages with ad libitum food (Harland Tekland Irradiated Rodent Diet) and autoclaved water. The rats were housed on Harlan Tek-chip pelleted paper in static micro isolators maintained at 72° F., 60% humidity, and a 12 hour light cycle. The animals were kept at the facility for 10 days to get accustomed to the environment, after the arrival from the vendor. Diabetes was induced in the rats by intraperitoneal injection of 50 mg/kg body weight of streptozocin on 5 consecutive days. The wound was created on the rat by using a contortive scratcher to make a 2 mm incision with 0.57-0.62 mm depth on the dorsal skin of the animal. The area was shaved and sanitized with normal lugol's iodine prior to use of the scratcher.
Esmolol hydrochloride (10%) was administered three times daily or the standard treatment control, by smearing the agent directly onto the wound. The positive control used was platelet derived growth factor that is commercially available. The treatment was continued until the wounds of the treated mice were completely healed. […]
Several wound healing parameters were measured on the day 3, day 7, day 12 and day 19 of the creation of the wound. These parameters are reported in separate tables below. The wound size and weight of the rats was measured every alternate day. Specifically, the length and width of the wound were measured by use of micro vernier calipers, and the tensile strength at the edge of the wound was also recorded every other day. The wound diameter was measured by the same investigator on day 3, 12, 19 by the use of an electronic digital vernier caliper (B&D, Pomanus, N.J.). The caliper was calibrated just before the measurement by adjusting the zero error. […]
The area for evaluation was cut clean by an Eppendorf 10 size scalpel and the tissue was preserved in 10% of phosphate buffered formalin solution. The tissues were removed from this formalin solution and immersed in 100% of ethanol for 6 hours. The tissue were again removed and preserved for evaluation in 10% Bouins solution. […]
The quantity of exudation from wound was measured by the use of a micropipette (Eppendorf). […]
The adherence is the strength by which the two ends of the wound are attached together and measured by a Velcro index meter.
Fluid accumulation was measured by volume of fluid obtained from wound using micro pipette as described in Table 8. […]

For assay [5], the system named is nitric oxide (nitrate/nitrite). The assay is described as follows: Measurement of nitric oxide (nitrite/nitrate) in tissue by chemiluminescence. To be noted: total versus controls. The format is in vivo, rat. The protocol: Fresh tissue (approximately 0.2 g) was added to 1 ml cold homogenizing buffer (20 mmol/l HEPES-KOH, pH 7.9; 25% glycerol; 420 mmol/l NaCl; 1.5 mmol/l MgCl2; 0.2 mmol/l EDTA; 0.5 mmol/l dithiothreitol; 0.2 mmol/l phenylmethylsulphonyl fluoride). The buffered tissues were homogenized at maximum speed for 5 seconds and cooled in ice-water for 30 seconds. This procedure was repeated five times to ensure complete tissue destruction.
Two volumes of 100% cold ethanol were added to the homogenized samples; these were vortexed and incubated on ice for 30 minutes. The homogenate was centrifuged at 12,000×g for 5 minutes at 4° C., and the supernatant transferred to a new tube on ice for NO measurement.
A rapid-response chemiluminescence analyzer was used to measure total gas phase NO (nitrate/nitrite). NO gas reacts with ozone, producing energy in the form of light, and the light is proportional to the quantity of NO present. The emission was measured using a luminometer to determine NO concentration.
The sample tube was securely connected to a Zero Gas Filter (Sievers Instruments) and room air passed through the device for 5 minutes. […] The sample gas was then exposed to the ozone in the reaction vessel to form activated nitrogen dioxide (NO2), which was detected using a red-sensitive photomultiplier tube, and the output recorded using an integrating pen recorder. […]

As usually defined, the pIC50 is the IC50 on a negative log10 scale, so that one unit is a factor of ten. In the case of `OC(CNCC(O)C1CCc2cc(F)ccc2O1)C1CCc2cc(F)ccc2O1` (centres unmarked) [Nebivolol, nebivolol hydrochloride], in assay [1], the pIC50 is under 3.46.
The same measure, in the same setting: for `COCCc1ccc(OCC(O)CNC(C)C)cc1` (centres unmarked) [Metoprolol, metoprolol tartrate] the value was under 3.46.
In the case of `CC(C)(C)NC[C@H](O)COc1nsnc1N1CCOCC1` [Timolol, timolol maleate], the “Sorbitol concentration in RBC” value in assay [2] (RBC under 30 mM glucose + 250 μM of timolol) is 17.34 µg/mL. For the same molecule, in assay [1], the “aldose reductase inhibition (in words)” value is “effective aldose reductase inhibition” and the pIC50 was 3.60.
On to `COc1ccccc1OCCNCC(O)COc1cccc2[nH]c3ccccc3c12` (centres unmarked) [Carvedilol, carvedilol], for which, in assay [1], the pIC50 was under 3.46.
`COC(=O)CCc1ccc(OCC(O)CNC(C)C)cc1` (centres unmarked) [Esmolol, esmolol hydrochloride] gave a Collagen production in assay [3] (Day 3) of 124. The molecule also gave a Collagen production in assay [3] (Day 7) of 287. In assay [3] (Day 12), this molecule yielded a Collagen production of 325. The same molecule gave a Collagen production in assay [3] (Day 19) of 288. The same molecule registered a Collagen production in assay [3] (Total) of 1024. Also, the “Collagen production, % Increase” value in assay [3] (total versus controls) came out at 68%. In assay [2] (RBC under 30 mM glucose + 150 μM of esmolol), the “Sorbitol concentration in RBC” value was 16.16 µg/mL. For the same molecule, in assay [4] (Day 3), the “Ease of removal from wounds” value is 2.6 +/− 0.2, the “Evaluation of biopsy wounds in diabetic rats” value (“Evaluation of biopsy wounds” below) was 1.3 +/− 0.3, the Exudation stood at 1.2 ± 0.2 µL and the Film transparency is 1.7 +/− 0.3. Besides, in assay [4] (Day 3), the Flexibility is 2.3 +/− 0.2, the Fluid accumulation is listed as 2.3 +/− 0.4, the Wound adherence is on record as 2.6 +/− 0.4 and the “Wound diameter: degree of contraction” value is 12.17 +/− 5.8%. The Wound diameter in assay [4] (Day 3) is on record as 1.28 +/− 0.12 MM. In assay [4] (Day 7), the “Ease of removal from wounds” value is given as 2.8 +/− 0.3, the “Evaluation of biopsy wounds” value is listed as 1.3 +/− 0.2, the Exudation is 2.7 ± 0.5 µL and the Film transparency is 2.3 +/− 0.4. In assay [4] (Day 7), the Flexibility was 2.4 +/− 0.5, the Fluid accumulation is 2.7 +/− 0.5 and the Wound adherence was 3.3 +/− 0.3. Further, in assay [4] (Day 12), the “Ease of removal from wounds” value is 2.7 +/− 0.5, the “Evaluation of biopsy wounds” value is given as 1.4 +/− 0.3, the Exudation is 3.5 ± 0.6 µL and the Film transparency is recorded as 2.6 +/− 0.6. In assay [4] (Day 12), the Flexibility is on record as 3.5 +/− 0.6, the Fluid accumulation is reported as 2.6 +/− 0.7, the Wound adherence is recorded as 3.9 +/− 0.5 and the “Wound diameter: degree of contraction” value is given as 41.86 +/− 13.2%. Further, in assay [4] (Day 12), the Wound diameter is given as 1.37 +/− 0.17 MM. In assay [4] (Day 19), the “Ease of removal from wounds” value was 2.5 +/− 0.4, the “Evaluation of biopsy wounds” value is given as 1.5 +/− 0.3, the Exudation amounted to 4.9 ± 0.2 µL and the Film transparency is on record as 3.3 +/− 0.4. Also, in assay [4] (Day 19), the Flexibility is recorded as 3.9 +/− 0.8, the Fluid accumulation is 2.5 +/− 0.5, the Wound adherence is 4.7 +/− 0.5 and the “Wound diameter: degree of contraction” value is 98.64 +/− 9.6%. In addition, the Wound diameter in assay [4] (Day 19) is 0.79 +/− 0.28 MM. Further, in assay [4] (Total), the “Ease of removal from wounds” value is given as 10.6 +/− 1.4, the “Evaluation of biopsy wounds” value is reported as 5.5 +/− 1.1, the Exudation amounted to 12.3 ± 1.1 µL and the Film transparency is on record as 9.9 +/− 1.1. In assay [4] (Total), the Flexibility was 12.1 +/− 2.9, the Fluid accumulation was 10.1 +/− 1.2 and the Wound adherence is reported as 14.5 +/− 0.9. For the same molecule, in assay [4] (rat, in vivo), the Period for epithelization was 9.8 ± 0.8 days, the Scar formation is given as 1.3 +/− 0.4 Score and the “Time taken for complete wound closure” value came out at 19.6 ± 2.2 days. Moreover, in assay [1], the “aldose reductase inhibition (in words)” value is given as “effective aldose reductase inhibition” and the negative logarithm of the IC50 (pIC50) was 3.80. Further, in assay [5], the “NO increase, % Increase” value is 53%.
Regarding `CC(C)NCC(O)COc1cccc2ccccc12.Cl` (centres unmarked) [Propranolol, propranolol hydrochloride], the “Sorbitol concentration in RBC” value in assay [2] (RBC under 30 mM glucose + 350 μM of propranolol) was 18.25 µg/mL. In addition, in assay [1], the “aldose reductase inhibition (in words)” value is listed as “effective aldose reductase inhibition” and the negative logarithm of the IC50 (pIC50) is 3.46.
As to `CC(CCc1ccccc1)NCC(O)c1ccc(O)c(C(N)=O)c1` (centres unmarked) [Labetalol, labetalol hydrochloride], the pIC50 in assay [1] was under 3.46.
In the case of `CC(C)NCC(O)c1ccc(NS(C)(=O)=O)cc1` (centres unmarked) [Sotalol, sotalol hydrochloride], the negative-log IC50 (pIC50) in assay [1] is under 3.46.
